Where a name gives a salt, the structure may show the parent alone. Marks after values point to notes of the source that are not given here.
Columns and labels:
[1] = Example 8: adverse events; assay type: in vivo, human
Protocol: There were no deaths or serious adverse events. No subjects discontinued because of adverse events. The majority of drug-related adverse events occurred when subjects were dosed with Talwin® Nx. These included nausea, vomiting, dizziness, and headache. One subject withdrew consent due to a schedule conflict.
Eleven of 18 subjects experienced a total of 25 adverse events, none serious. Seven of these subjects experienced adverse events described as possibly, probably, or definitely related to the study medication. Overall, adverse events were more frequently reported in subjects receiving Talwin® Nx, consistent with expected adverse events related to pentazocine. All subjects recovered from all adverse events. No action (e.g., discontinuation) was taken with regard to the study drug.

clinical [2] = settings: both, human, plasma; for AUC(0-t): AUCt; for AUC(0-t) / Cmax / Tmax: plasma naloxone
Protocol: In Example 8, a single-center, open-label, randomized, 4-period, 4-sequence, 4-treatment crossover study in 18 normal, healthy, young adult, male and female subjects under fasted conditions was conducted. […] Subjects were randomly assigned to four sequences with periods consisting of the following: • Period 1 was Days 1-8 (from the time of the first dose until the time of the second dose), • Period 2 was Days 8-15 (from the time of the second dose until the third dose), • Period 3 was Days 15-22 (from the third dose until the fourth dose), and • Period 4 was Days 22 (from the time of the last dose until the end of the study).
Dosing took place on Days 1, 8, 15, and 22. For the duration of the study, subjects were instructed not to engage in heavy exercise.
Talwin® Nx was administered with 8 ounces of water, which the subjects drank completely. Afterwards, mouth inspections were done to ensure that each subject swallowed the tablet.
Following the single oral dose of naloxone, subjects drank two additional 75 ml rinses of water, for a total volume of 225 ml. For divided doses (also 0.02 mg/ml), the first dose was followed by two 94 ml rinses of water, and subsequent doses were followed by two 75 ml rinses of water.
Intravenous naloxone was administered by IV push. Following IV naloxone, subjects were observed by staff members continuously for at least 20 minutes.
Each subject received each treatment one time. Each treatment followed an overnight fast (excluding water) of at least 10 hours, and after dosing, the subjects fasted for an additional 4 hours. Except for the days of dosings, there were no food restrictions. While subjects were confined to the clinical unit all meals were served at standardized times, and the content was standardized throughout the study and between subjects. Meal records were maintained, including content. No caffeine or xanthine-containing beverages were served while the subjects were in the clinical facility.

clinical [3] = settings: both, human, plasma, oral
Protocol: Up to 96 subjects were to be enrolled in order to complete a minimum of 48 subjects who were evaluable for pharmacokinetics. […] Subjects successfully completing the Narcan® challenge were randomly assigned to 1 of 2 crossover treatment sequences (reference to test or test to reference) with a 5-day washout period separating dosing in the 2 periods. Subjects were confined to the study facility continuously from Day-1 until Day 10. […] All doses were administered with 8 ounces of water after an overnight fast (excluding water). […] Plasma concentrations of oxycodone and naloxone (as applicable) were determined, and pharmacokinetic metrics were calculated and analyzed. […] For the purpose of statistical analyses, Period 1 was defined as the time from administration of the first dose (Day 2) to just prior to administration of the second dose (Day 7). Period 2 was defined as the time from administration of the second dose (Day 7) to the time of the 72-hour postdose blood collection on Day 10.

[4] = conclusions of the study, treatment not named
[5] = iv, 0.5 mg, 0.5 mg IV naloxone HCl, arithmetic mean (SD)
[6] = po, 1.5 mg, 1.5 mg naloxone HCl oral divided doses, arithmetic mean (SD)
[7] = po, 1.5 mg, 1.5 mg naloxone HCl single oral dose, 18 subjects, arithmetic mean (SD)

Compound: C=CCN1CC[C@]23c4c5ccc(O)c4O[C@H]2C(=O)CC[C@@]3(O)[C@H]1C5 [Naloxone HCl, naloxone hydrochloride]
- adverse events considered possibly, probably, or definitely related to study drug ([1]; 0.5 mg intravenous naloxone): nausea possibly related
- adverse events considered possibly, probably, or definitely related to study drug ([1]; 1.5 mg oral naloxone in divided doses): headache possibly related
- tolerability ([1]; given alone, total doses of 0.5 mg IV and up to 1.5 mg orally): well tolerated
- adverse events during the naloxone challenge test ([1]; intravenous challenge at screening, 18 subjects randomized): No adverse events were observed
- AUC0-∞, dose normalized (Dose Normalized to 0.5 mg IV Naloxone HCl dose, 0.5 mg IV arm, 15 subjects): 3051 (668)^a pg · h/ml
- Mean naloxone peak exposure [4]: 8 pg/mL
- naloxone peak exposure, range [4]: 0 to 16.6 pg/mL
- AUC(0-inf) (clinical [2]; iv, 0.5 mg): 3.05 ng·h/mL
- clearance (clinical [2]; iv, 0.5 mg): 2850 mL/min
- AUC(0-t) (clinical [2]; iv, 0.5 mg, 0.5 mg IV naloxone HCl, fasted healthy subjects, arithmetic mean (SD)): 3.2 ng·h/mL
- Cmax (clinical [2]; [5]): 6.25 ng/mL
- half-life (clinical [2]; iv, 0.5 mg, t1/2, plasma naloxone, 0.5 mg IV naloxone HCl, 15 subjects, arithmetic mean (SD)): 0.92 h
- Tmax (clinical [2]; [5]): 0.14 h
- AUC(0-t) (clinical [2]; po, 1.5 mg, 1.5 mg naloxone HCl oral divided doses (0, 3, 6, 9 h), arithmetic mean (SD)): 0.0649 ng·h/mL
- AUC(0-t) (clinical [2]; po, 1.5 mg, 1.5 mg naloxone HCl single oral dose (solution), 18 subjects, arithmetic mean (SD)): 0.0474 ng·h/mL
- Cmax (clinical [2]; [6]): 0.0134 ng/mL
- Cmax (clinical [2]; [7]): 0.023 ng/mL
- bioavailability (clinical [2]; po, 1.5 mg, F (%) absolute bioavailability, 1.5 mg naloxone HCl oral divided doses, based on AUCt, mean (SD)): 0.66%
- bioavailability (clinical [2]; po, 1.5 mg, F (%) absolute bioavailability, 1.5 mg naloxone HCl single oral dose, based on AUCt, mean (SD)): 0.47%
- Tmax (clinical [2]; [6]): 3.18 h
- Tmax (clinical [2]; [7]): 0.78 h
- bioavailability (clinical [2]; po, absolute bioavailability of naloxone, all three oral treatments studied): < 1%
- Cmax (clinical [3]): 0.00213 ± 0.00447 ng/mL
- Tmax (clinical [3]): 3.35 ± 3.69 h
- half-life (clinical [3]): 4.3 ± 3.03 h
